What is called IC50 is the concentration that inhibits the measured activity by half.

The structures appear in SMILES notation. Entries after “also recorded” stand apart in the source; their conditions may differ. Where two headings read alike, the source gives them in different places.

The subject of experiment [1] is T7115 (C342T XPB knock-in HEK293T cells). The experiment is described as follows: Proliferation of XPB C342T knock-in cell line T7115 ([3H]-thymidine incorporation). The experiment is classed as cell-based, human. Conditions: C342T XPB knock-in versus isogenic WT 293T. From the text:
(§1) Cells and culture conditions. Primary astrocytes (Lonza, Walkersville, Md.; ABM™ Basal Media with AGM™ SingleQuots™ Supplement Pack), fibroblast (ATCC; Fibroblast Basal Medium (ATCC© PCS-201-030™) with Fibroblast Growth Kit-Serum-free (ATCC© PCS-201-040™)), airway epithelial cell (ATCC; Airway Epithelial Cell Basal Medium (ATCC© PCS-300-030™) with Bronchial Epithelial Cell Growth Kit (ATCC© PCS-300-040™)), renal proximal tubule (ATCC; Renal Epithelial Cell Basal Medium (ATCC© PCS-400-030™) with Renal Epithelial Cell Growth Kit (ATCC© PCS-400-040™)), prostate epithelial cell (Lonza; PrEGM™ BulletKit™) and mammary epithelial cell (Lonza; MEBM™ BulletKit™) were kept in a humidified incubator at 37° C. adjusted to 5% CO2. […]
A general note: Uptake of a labelled nucleoside into DNA is a usual measure of proliferation.

The subject of the next experiment is LNCaP. The experiment is described as follows: XTT viability assay, LNCaP. Conditions: Homo sapiens, Prostate Cancer. Type of experiment: cell-based.
From the text: as §1
(§2) XTT assay. […] Cell viability was measured using the R&D Systemsm TACS XTT Cell Proliferation/Viability Assay (R&D Systems, Minneapolis, Minn.).

The subject of a further experiment is DU-145. The experiment is described as follows: XTT viability assay, DU-145. The following applies: Homo sapiens; Prostate Cancer, DU-145, XTT. Type of experiment: cell-based.
From the text: as §1, §2

Another experiment deals with MDA-MB-231. The experiment is described as follows: XTT viability assay, MDA-MB-231. The experiment is classed as cell-based. Conditions: Homo sapiens; Breast Cancer, MDA-MB-231, XTT.
From the text: as §1, §2
(Tetrazolium dyes change colour on reduction, which living cells bring about.)

For another experiment, the system named is Detroit 562. The experiment is described as follows: XTT viability assay, Detroit 562. The experiment is classed as cell-based. Conditions: Homo sapiens; Head and Neck Cancer, Detroit 562, XTT.
From the text: as §1, §2

In the next experiment the test system is RPMI-7951. The experiment in a line: XTT viability assay, RPMI-7951. The experiment is classed as cell-based. The following applies: Homo sapiens; Melanoma, RPMI-7951, XTT.
From the text: as §1, §2

The test system of a further experiment is CfPAC-1. The experiment in a line: XTT viability assay, CfPAC-1. The following applies: Homo sapiens; Pancreatic Cancer, CfPAC-1, XTT. The experiment is classed as cell-based.
From the text: as §1, §2

A further experiment relates to A549. The experiment is described as follows: XTT viability assay, A549. Conditions: Homo sapiens, Lung Cancer. Type of experiment: cell-based.
From the text: as §1, §2

For another experiment, the system named is SNU-475. The experiment in a line: XTT viability assay, SNU-475. The experiment is classed as cell-based. The following applies: Homo sapiens; Liver Cancer, SNU-475, XTT.
From the text: as §1, §2

Another experiment deals with SK-HEP-1. The experiment in a line: XTT viability assay, SK-HEP-1. Type of experiment: cell-based. The following applies: Homo sapiens, SK-HEP1; Liver Cancer, SK-HEP-1, XTT.
From the text: as §1, §2

Another experiment relates to SNU-387. The experiment in a line: XTT viability assay, SNU-387. The experiment is classed as cell-based. Conditions: Homo sapiens; Liver Cancer, SNU-387, XTT.
From the text: as §1, §2

A further experiment concerns Astrocyte. The experiment in a line: XTT viability assay, primary astrocytes. Type of experiment: cell-based. The following applies: Homo sapiens, Primary normal cells.
From the text: as §1, §2

The next experiment concerns Fibroblast. The experiment in a line: XTT viability assay, primary fibroblasts. Conditions: Homo sapiens, Primary normal cells. The experiment is classed as cell-based.
From the text: as §1, §2

In a further experiment the test system is Prostate Epithelial cell. The experiment in a line: XTT viability assay, prostate epithelial cells. Conditions: Homo sapiens, Primary normal cells. The experiment is classed as cell-based.
From the text: as §1, §2

A further experiment has as its system Mammary Epithelial cell. The experiment is described as follows: XTT viability assay, mammary epithelial cells. The experiment is classed as cell-based. Conditions: Homo sapiens, Primary normal cells.
From the text: as §1, §2

Another experiment has as its system Cancer cell lines. The experiment in a line: XTT viability assay, panel of cancer cell lines (means and ranges). Type of experiment: cell-based. The following applies: Homo sapiens. From the text:
(§3) Cells and culture conditions. Primary astrocytes (Lonza, Walkersville, Md.; ABM™ Basal Media with AGM™ SingleQuots™ Supplement Pack), fibroblast (ATCC; Fibroblast Basal Medium (ATCC© PCS-201-030™) with Fibroblast Growth Kit-Serum-free (ATCC© PCS-201-040™)), airway epithelial cell (ATCC; Airway Epithelial Cell Basal Medium (ATCC© PCS-300-030™) with Bronchial Epithelial Cell Growth Kit (ATCC© PCS-300-040™)), renal proximal tubule (ATCC; Renal Epithelial Cell Basal Medium (ATCC© PCS-400-030™) with Renal Epithelial Cell Growth Kit (ATCC© PCS-400-040™)), prostate epithelial cell (Lonza; PrEGM™ BulletKit™) and mammary epithelial cell (Lonza; MEBM™ BulletKit™) were kept in a humidified incubator at 37° C. adjusted to 5% CO2. Prostate (PC3, LNCaP, DU-145), breast (MDA-MB-231, MDA-MB-453, SK-BR-3), head and neck (A253, Detroit 562, SCC-25), melanoma (SK-Mel-3, SK-Mel-1, RPMI-7951), pancreatic (CfPAC-1, BxPC3, SW1990), lung (A549, NCI-H1299, NCI-H1437) and liver (SNU-475, SK-HEP-1, SNU-387) cancer cell lines were obtained from ATCC and cultured in their respective media (prostate cells: RPMI-1640, MDA-MB-231: RPMI-1640, MDA-MB-453: Leibovitz's L-15, SK-BR-3: McCoy's 5a, A253: McCoy's 5a, Detroit 562: EMEM, SCC-25: DMEM, SK-Mel-3: McCoy's 5a, SK-Mel-1: EMEM, RPMI-7951: EMEM), CfPAC-1: IMDM, BxPC3: RPMI-1640, SW1990: Leibovitz's L-15), A549: F-12K, NCI-H1299: RPMI-1640, NCI-H1437: RPMI-1640, SNU-475: RPMI-1640, SK-HEP-1: EMEM, SNU-387: RPMI-1640. All media were supplemented with 10% (vol/vol) filtered fetal bovine serum (FBS, Invitrogen, Carlsbad, Calif.), 1% penicillin/streptomycin (Invitrogen) and maintained in a humidified incubator at 37° C. with 5% CO2 except for MDA-MB-453 and SW1990 grown at 37° C. without CO2 control. Wild type (ATCC) and C342T XPB knock-in cells (named T7115) of Human Embryonic Kidney 293T (HEK293T), HeLa (ATCC) were cultured in DMEM (GIBCO) with 10% (vol/vol) filtered fetal bovine serum (FBS, Invitrogen, Carlsbad, Calif.), 1% penicillin/streptomycin (Invitrogen).
(§4) XTT assay. Five thousand cells/well were plated on flat-bottom, transparent 96-well plate in a full growth media and incubated at appropriate culture conditions. Twenty four hours after seeding, cells were treated with indicated drugs and incubated for 47 hrs. Cell viability was measured using the R&D Systemsm TACS XTT Cell Proliferation/Viability Assay (R&D Systems, Minneapolis, Minn.).

Another experiment concerns primary human cells. The experiment in a line: XTT viability assay, panel of primary non-malignant cells (means and ranges). The experiment is classed as cell-based.
From the text: as §3, §4

Another experiment deals with HepG2. The experiment in a line: HepG2 proliferation under hypoxia ([3H]-thymidine incorporation). Type of experiment: cell-based, human. Conditions: HepG2, 1% O2, 48 h post treatment.
Where [2] appears, read: Cancer cell lines (n = 21), read-out: mean IC50 by cell type.
Where [3] appears, read: Less sensitive lines (n = 13), IC50 ≥ 1 μM, read-out: mean IC50 by cell type.
Where [4] appears, read: Sensitive lines (n = 8), IC50 < 1 μM, read-out: mean IC50 by cell type.
Where [5] appears, read: Non-malignant cells, read-out: mean IC50 by cell type.
The mark [6] stands for this setting: cell viability, panel of normal primary cells, read-out: range of IC50 values for primary cells.

Regarding `CC(C)[C@]12O[C@H]1[C@@H]1O[C@]13[C@]1(O[C@H]1C[C@H]1C4=C(CC[C@@]13C)C(=O)OC4)[C@@H]2OC(=O)CCCO[C@@H]1OC(CO)[C@@H](O)C(O)C1O` (stereo in doubt) [Compound 1], the “sensitivity of T7115 mutant line (proliferation)” value in experiment [1] was “resistant”. In addition, the IC50 in the experiment on LNCaP came to 0.45 ± 0.33 µM; in the experiment on DU-145, 0.44 ± 0.19 µM; in the experiment with MDA-MB-231, 0.26 ± 0.1 µM; in the experiment on Detroit 562, 1.24 ± 0.61 µM; with RPMI-7951, 5.95 ± 2.45 µM; with CfPAC-1, 0.47 ± 0.32 µM. For the same molecule, the IC50 with A549 worked out at 2.72 ± 1.41 µM; in the experiment with SNU-475, 4.6 ± 4.55 µM; in the experiment on SK-HEP-1 it was 5.9 ± 0.28 µM; with SNU-387, 24.4 ± 8.9 µM; in the experiment on Astrocyte, 10.9 ± 9.66 µM; in the experiment with Fibroblast, 10.6 ± 1.22 µM. For the same molecule, the half-maximal inhibitory concentration (IC50) with Prostate Epithelial cell was 4.72 ± 3.48 µM; with Mammary Epithelial cell, 4.31 ± 1.03 µM; in the experiment with Cancer cell lines (setting [2]) it was 3.94 ± 3.26 µM; in the experiment with Cancer cell lines (setting [3]), 6.25 ± 3.68 µM; in the experiment with Cancer cell lines (setting [4]) it was 0.47 ± 0.06 µM; with Cancer cell lines (with the exception of SNU-387 and NCI-H1299, read-out: range of IC50 values for cancer cell lines), 0.26 to 6.5 µM. Also, the 50% inhibitory concentration (IC50) in the experiment on primary human cells (setting [5]) is 6.8 ± 1.67 µM; in the experiment with primary human cells (setting [6]), 4 to 10.9 µM. For the same molecule, in the experiment with HepG2, the “effect of hypoxia on anti-proliferative effect” value was “resistance; also recorded: remains resistant”.

For `CC(C)[C@]12O[C@H]1[C@@H]1O[C@]13[C@]1(O[C@H]1C[C@H]1C4=C(CC[C@@]13C)C(=O)OC4)[C@@H]2OC(=O)CCC(=O)O[C@@H]1OC(CO)[C@@H](O)C(O)C1O` (some centres unmarked) [Compound 10], the half-inhibitory concentration (IC50) with LNCaP was 0.56 ± 0.09 µM; in the experiment with DU-145, 0.4 ± 0.13 µM; in the experiment with MDA-MB-231, 0.28 ± 0.01 µM; in the experiment on Detroit 562, 1.42 ± 0.83 µM; with RPMI-7951, 2.67 ± 1.34 µM; with CfPAC-1, 0.51 ± 0.35 µM. The IC50 with A549 turned out to be 1.7 ± 0.79 µM; with SNU-475 it was 3.85 ± 3.26 µM; in the experiment on SK-HEP-1, 3.38 ± 0.71 µM; in the experiment with SNU-387, 15.5 ± 9.28 µM; with Astrocyte it was 5.31 ± 4.29 µM; in the experiment on Fibroblast, 5.64 ± 1.28 µM. In addition, the IC50 in the experiment on Prostate Epithelial cell came to 5.27 ± 2.29 µM; with Mammary Epithelial cell, 2.56 ± 0.29 µM; with Cancer cell lines (setting [2]), 2.42 ± 2 µM; with Cancer cell lines (setting [3]), 3.7 ± 2.33 µM; in the experiment with Cancer cell lines (setting [4]) it was 0.49 µM; in the experiment on primary human cells (setting [5]), 4.16 ± 0.93 µM. For the same molecule, in the experiment on primary human cells (setting [6]), the IC50 was in the range of 1.37 to 5.6 µM.

The record behind these values is patent US20230134986A1, “GLUCOSE TRIPTOLIDE CONJUGATES AND USES THEREOF” (The Johns Hopkins University, priority 2020, published 2023).
